In the first assay the target is T1, KRAS G12C 1-169, his-tagged protein, GDP-loaded (Homo sapiens, UniProt P01116, G12C).
T1 construct: KRAS G12C 1-169, his-tagged protein, GDP-loaded
In words: Biochemical assay: covalent modification of KRAS G12C measured by mass spectrometry (RapidFire/TOF or Q-Exactive). It is filed as binding. Particulars: tested at 32 μM. How it is done:
Test compounds were prepared as 10 mM stock solutions in DMSO (Fisher cat. #BP-231-100). KRAS G12C 1-169, his-tagged protein, GDP-loaded is diluted to 2 μM or 0.5 μM in buffer (20 mM Hepes, 150 mM NaCl, 1 mM MgCl2). Compounds were tested for activity as follows:
Compounds were diluted to 50× final test concentration in DMSO in 96-well storage plates. Compound stock solutions were vortexed before use and observed cwerefully for any sign of precipitation. Dilutions were as follow: • For 32 μM final compound concentration, compounds were diluted to 1600 μM (3 μL 10 mM compound stock +15.75 μL DMSO and mixed well by pipetting. • For 8 μM final compound concentration, compounds were diluted to 400 μM (2 μL 10 mM compound stock +48 μL DMSO) and mixed well by pipetting. 49 μL of the stock protein solution was added to each well of a 96-well PCR plate (Fisher cat#1423027). 1 μl of the diluted 50× compounds were added to appropriate wells in the PCR plate using 12-channel pipettor. Reactions were mixed carefully and thoroughly by pipetting up/down with a 200 μL multi-channel pipettor. The plate was sealed well with aluminum plate seal, and protein and compound were allowed to react for a desired amount of time. 5 μL of 2% formic acid (Fisher cat#A117) in de-ionized H2O was then added to each well followed by mixing with a pipette to quench the reaction. The plate was then resealed with aluminum seal and stored frozen on dry ice until analyzed as described below.
The above described assays were analyzed by mass spectrometry according to one of the following two procedures:
The MS instrument was set to positive polarity, 2 GHz resolution, and low mass (1700) mode and allowed to equilibrate for 30 minutes. The instrument was then calibrated, switched to acquisition mode and the appropriate method loaded.
After another 30 minute equilibration time, a blank batch (i.e., buffer) was run to ensure equipment is operating properly. The samples were thawed at 37° C. for 10 minutes, briefly centrifuged, and transfered to the bench top. Wells A1 and H12 were spiked with 1 μL 500 μM internal standard peptide, and the plates centrifuged at 2000×g for 5 minutes. The method was then run and masses of each individual well recorded.
The masses (for which integration data is desired) for each well were pasted into the platemap and exported from the analysis. Masses for the internal standards were exported as well. The data at 50 ppm was extracted for the +19 charge state, and identity of well A1 was assigned using the internal standard spike and integrated. Peak data was exported as a TOF list and the above steps were repeated individually, for the +20, +21, +22, +23, +24, and +25 charge states.
The masses and peak intensities of KRAS G12C protein species were measured using a Dionex RSLCnano system (Thermo Scientific) connected to a Q Exactive Plus mass spectrometer (Thermo Scientific).
20 μL of sample was loaded onto a Aeris™ 3.6 μm WIDEPORE C4 200 Å, LC Column 50×2.1 mm column maintained at 40° C. at a flow rate of 600 μL/min with 80% Solvent A (0.1% formic acid in H2O) and 20% Solvent B (0.1% formic acid in acetonitrile). The liquid chromatography conditions were 20% solvent B for 1 minute, 20% to 60% solvent B for 1.5 minutes, 60% to 90% solvent for 0.5 minute, 90% solvent B for 0.2 minute, 90% to 20% solvent B for 0.2 minute, and then equilibrated for 1.6 minute before the following sample injection. The flow rate was maintained at 600 μL/min throughout the sample analysis.
The mass spectrometer was operated in profile mode at a resolution of 17500, 5 microscans, using 50 msec max injection time and an AGC target of 1×10^6, and a full mass range from 800-1850 m/z was recorded. The intact protein mode was applied for optimal ion transfer and maximum sensitivity. The ionization method was electrospray ionization, which used a spray voltage of 4 kV, sheath gas flow set to 50 AU, auxiliary gas flow set to 10 AU and sweep gas flow set to 1 AU. […]
For `C=CC(=O)N1CC2(CCN(c3cc(N4CCC5(CCN(C)C5)C4)cc(-c4c(C)ccc5[nH]ncc45)c3C#N)C2)C1` (stereo not drawn) [Compound I-41, 2-(2-acryloyl-2,6-diazaspiro[3.4]octan-6-yl)-6-(5-methyl-1H-indazol-4-yl)-4-(7-methyl-2,7-diazaspiro[4.4]nonan-2-yl)benzonitrile], the Bind % entry is reported as “+++ (+++ indicates binding activity greater than 75%)”.
On the same count and under the same terms, with `Cc1ccc2[nH]ncc2c1-c1c(F)ccc(N2CCC3(CN(C(=O)/C=C/CN(C)C)C3)C2)c1C#N` [Compound I-46, (E)-6-(2-(4-(dimethylamino)but-2-enoyl)-2,6-diazaspiro[3.4]octan-6-yl)-3-fluoro-2-(5-methyl-1H-indazol-4-yl)benzonitrile] the entry was “+ (+ indicates binding activity greater than 0% and up to 50%)”; with `Cc1ccc2cnn(C)c2c1-c1c(F)ccc(N2CCC3(CN(C(=O)/C=C/CN(C)C)C3)C2)c1C#N` [Compound I-47, (E)-2-(1,6-dimethyl-1H-indazol-7-yl)-6-(2-(4-(dimethylamino)but-2-enoyl)-2,6-diazaspiro[3.4]octan-6-yl)-3-fluorobenzo-nitrile], “+ (+ indicates binding activity greater than 0% and up to 50%)”; with `C=CC(=O)N1CCC2(C1)CN(c1cc(OCc3ccccn3)cc(-c3c(C)ccc4[nH]ncc34)c1C#N)C2` [Compound I-48, 2-(6-acryloyl-2,6-diazaspiro[3.4]octan-2-yl)-6-(5-methyl-1H-indazol-4-yl)-4-(pyridin-2-ylmethoxy) benzonitrile], “+ (+ indicates binding activity greater than 0% and up to 50%)”.
`CC#CC(=O)N1CCC2(C1)CN(c1cc(OCc3ccccn3)cc(-c3c(C)ccc4[nH]ncc34)c1C#N)C2` [Compound I-49, 2-(6-(but-2-ynoyl)-2,6-diazaspiro[3.4]octan-2-yl)-6-(5-methyl-1H-indazol-4-yl)-4-(pyridin-2-ylmethoxy) benzonitrile]: the Bind % entry was “+ (+ indicates binding activity greater than 0% and up to 50%)”.
Still for that read-out and setting: with `CC#CC(=O)N1CC2(CCN(c3cc(OCc4ccccn4)cc(-c4c(C)ccc5[nH]ncc45)c3C#N)CC2)C1` [Compound I-51, 2-(2-(but-2-ynoyl)-2,7-diazaspiro[3.5]nonan-7-yl)-6-(5-methyl-1H-indazol-4-yl)-4-(pyridin-2-ylmethoxy) benzonitrile] the entry was “+ (+ indicates binding activity greater than 0% and up to 50%)”; with `C=CC(=O)N1CCC2(CCN(c3cc(OCc4ccccn4)cc(-c4c(C)ccc5[nH]ncc45)c3C#N)CC2)C1` [Compound I-52, 2-(2-acryloyl-2,8-diazaspiro[4.5]decan-8-yl)-6-(5-methyl-1H-indazol-4-yl)-4-(pyridin-2-ylmethoxy) benzonitrile], “+ (+ indicates binding activity greater than 0% and up to 50%)”; with `CC#CC(=O)N1CCC2(CCN(c3cc(OCc4ccccn4)cc(-c4c(C)ccc5[nH]ncc45)c3C#N)CC2)C1` [Compound I-53, 2-(2-(but-2-ynoyl)-2,8-diazaspiro[4.5]decan-8-yl)-6-(5-methyl-1H-indazol-4-yl)-4-(pyridin-2-ylmethoxy) benzonitrile], “+ (+ indicates binding activity greater than 0% and up to 50%)”.
On the same count and under the same terms, to `Cc1ccc2cnn(C)c2c1-c1cc(OCc2ccccn2)cc(N2CCC3(CN(C(=O)/C=C/CN(C)C)C3)C2)c1C#N` [Compound I-54, (E)-2-(1,6-dimethyl-1H-indazol-7-yl)-6-(2-(4-(dimethylamino)but-2-enoyl)-2,6-diazaspiro[3.4]octan-6-yl)-4-(pyridin-2-ylmethoxy) benzonitrile] belongs “+++ (+++ indicates binding activity greater than 75%)”; to `CC#CC(=O)N1CCC2(CCN(c3cc(OCc4ccccn4)cc(-c4c(C)ccc5[nH]ncc45)c3C#N)C2)C1` (stereo not drawn) [Compound I-56, 2-(7-(but-2-ynoyl)-2,7-diazaspiro[4.4]nonan-2-yl)-6-(5-methyl-1H-indazol-4-yl)-4-(pyridin-2-ylmethoxy) benzonitrile], “+ (+ indicates binding activity greater than 0% and up to 50%)”; to `C=CC(=O)N1CC2(CCN(c3ccc(OCCCN(C)C)c(-c4c(C)ccc5[nH]ncc45)c3C#N)C2)C1` [Compound I-57, 6-(2-acryloyl-2,6-diazaspiro[3.4]octan-6-yl)-3-(3-(dimethylamino)propoxy)-2-(5-methyl-1H-indazol-4-yl)benzonitrile], “+ (+ indicates binding activity greater than 0% and up to 50%)”.
Still for that read-out and setting: with `C=CC(=O)N1CCC2(CC1)CCN(c1cc(OCc3ccccn3)cc(-c3c(C)ccc4[nH]ncc34)c1C#N)C2` [Compound I-58, 2-(8-acryloyl-2,8-diazaspiro[4.5]decan-2-yl)-6-(5-methyl-1H-indazol-4-yl)-4-(pyridin-2-ylmethoxy) benzonitrile] the entry was “+ (+ indicates binding activity greater than 0% and up to 50%)”; with `CC#CC(=O)N1CCC2(CC1)CCN(c1cc(OCc3ccccn3)cc(-c3c(C)ccc4[nH]ncc34)c1C#N)C2` [Compound I-59, 2-(8-(but-2-ynoyl)-2,8-diazaspiro[4.5]decan-2-yl)-6-(5-methyl-1H-indazol-4-yl)-4-(pyridin-2-ylmethoxy) benzonitrile], “+ (+ indicates binding activity greater than 0% and up to 50%)”.

Still in this assay, the particulars now being: tested at a concentration of 8 μM.
Take `C=CC(=O)N1CC2(CCN(c3ccc(OC)c(-c4c(C)ccc5[nH]ncc45)c3C#N)C2)C1` [Compound I-37, 6-(2-acryloyl-2,6-diazaspiro[3.4]octan-6-yl)-3-methoxy-2-(5-methyl-1H-indazol-4-yl)benzonitrile]: the Bind % entry was “+ (+ indicates binding activity greater than 0% and up to 50%)”.
Still for that read-out and setting: with `C=CC(=O)N1CC2(CCN(c3cc(N4CCC(N5CCN(C)[C@H](C)C5)CC4)cc(-c4c(C)ccc5[nH]ncc45)c3C#N)C2)C1` [Compound I-38, 2-(2-acryloyl-2,6-diazaspiro[3.4]octan-6-yl)-4-(4-((R)-3,4-dimethyl-piperazin-1-yl)piperidin-1-yl)-6-(5-methyl-1H-indazol-4-yl)benzonitrile] the entry was “+++ (+++ indicates binding activity greater than 75%)”; with `C=CC(=O)N1CC2(CCN(c3cc(N4CCC(N5CCN(C)CC5)CC4)cc(-c4c(C)ccc5[nH]ncc45)c3C#N)C2)C1` [Compound I-39, 2-(2-acryloyl-2,6-diazaspiro[3.4]octan-6-yl)-6-(5-methyl-1H-indazol-4-yl)-4-(4-(4-methylpiperazin-1-yl)piperidin-1-yl)benzonitrile], “+++ (+++ indicates binding activity greater than 75%)”.
Still for that read-out and setting: to `C=CC(=O)N1CC2(CCN(c3cc(OC[C@@H]4CCCN4C)cc(-c4c(C)ccc5cnn(C)c45)c3C#N)C2)C1` [Compound I-40, 2-(2-acryloyl-2,6-diazaspiro[3.4]octan-6-yl)-6-(1,6-dimethyl-1H-indazol-7-yl)-4-(((S)-1-methylpyrrolidin-2-yl)methoxy) benzonitrile] belongs “+++ (+++ indicates binding activity greater than 75%)”; to `C=CC(=O)N1CC2(CCN(c3cc(OCc4ccccn4)cc(-c4c(C)ccc5[nH]ncc45)c3C#N)CC2)C1` [Compound I-50, 2-(2-acryloyl-2,7-diazaspiro[3.5]nonan-7-yl)-6-(5-methyl-1H-indazol-4-yl)-4-(pyridin-2-ylmethoxy) benzonitrile], “+ (+ indicates binding activity greater than 0% and up to 50%)”.

(Values after patent US20210380595A1 (ARAXES PHARMA LLC, priority 2018, published 2021).)
